Data as given in the supplement of paper PMC10307832.

How the values were obtained:
Experiment in all cases: relative viability (nuclei count vs DMSO), 5 days (fraction); higher = more cells survive
[1] = compound: C1CC(C1)(C(=O)O)C(=O)O.[NH2-].[NH2-].[Pt+2] [Carboplatin] + CC(=O)Nc1cccc(-n2c(=O)n(C3CC3)c(=O)c3c(Nc4ccc(I)cc4F)n(C)c(=O)c(C)c32)c1 [Trametinib] (partner 0.02 µM)
How it was run: (§1)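 Medians of duplicate plates are given as relative viability. That measure is the nuclei count in treated wells divided by the count in vehicle wells. Counts were taken on 4× images of lung cancer cell lines in 1536-well plates, 5 days after pin-tool dosing the day after seeding with one drug alone or a fixed anchor-drug dose plus five library-drug doses (not always all listed) in √10 steps.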

[2] = compound: C1CC(C1)(C(=O)O)C(=O)O.[NH2-].[NH2-].[Pt+2] [Carboplatin] + Nc1nc2[nH]cc(CCc3ccc(C(=O)N[C@@H](CCC(=O)O)C(=O)O)cc3)c2c(=O)[nH]1 [Pemetrexed] (partner 0.2 µM)
How it was run: as §1

[3] = compound: CC[C@H](C)N1C=C(C2=C(C=C(C=C21)C3=CN=C(C=C3)N4CCNCC4)C(=O)NCC5=C(C=C(NC5=O)C)C)C [GSK126] + CCNC(=O)c1noc(-c2cc(C(C)C)c(O)cc2O)c1-c1ccc(CN2CCOCC2)cc1 [Luminespib] (partner 0.01 µM)
How it was run: as §1

[4] = compound: CC[C@H](C)N1C=C(C2=C(C=C(C=C21)C3=CN=C(C=C3)N4CCNCC4)C(=O)NCC5=C(C=C(NC5=O)C)C)C [GSK126] + NC(=O)Nc1cc(-c2cccc(F)c2)sc1C(=O)N[C@H]1CCCNC1 [AZD7762] (partner 0.2 µM)
How it was run: as §1

Row | Cell Line | relative viability ([1]; first compound 0.08 µM) | relative viability ([1]; first compound 0.253 µM) | relative viability ([1]; first compound 0.8 µM) | relative viability ([1]; first compound 2.53 µM) | relative viability ([1]; first compound 8 µM) | relative viability ([2]; first compound 0.08 µM) | relative viability ([2]; first compound 0.253 µM) | relative viability ([2]; first compound 0.8 µM) | relative viability ([2]; first compound 2.53 µM) | relative viability ([2]; first compound 8 µM) | relative viability ([3]; first compound 0.08 µM) | relative viability ([3]; first compound 0.253 µM) | relative viability ([3]; first compound 0.8 µM) | relative viability ([3]; first compound 2.53 µM) | relative viability ([3]; first compound 8 µM) | relative viability ([4]; first compound 0.08 µM) | relative viability ([4]; first compound 0.253 µM) | relative viability ([4]; first compound 0.8 µM) | relative viability ([4]; first compound 2.53 µM) | relative viability ([4]; first compound 8 µM)
1 | NCI-H838 | 0.558 | 0.519 | 0.536 | 0.515 | 0.541 | 0.271 | 0.285 | 0.236 | 0.244 | 0.251 | 0.39 | 0.319 | 0.357 | 0.302 | 0.34 | 1.1 | 0.932 | 0.873 | 0.916 | 0.857
2 | NCI-H522 | 0.724 | 0.876 | 0.632 | 0.781 | 0.762 | 0.814 | 0.924 | 1.11 | 1.01 | 0.913 | 1.2 | 1.2 | 1.13 | 1.19 | 1.13 | 0.849 | 0.888 | 0.904 | 0.93 | 0.964
3 | EPLC-272H | 0.302 | 0.317 | 0.334 | 0.273 | 0.303 | 0.368 | 0.309 | 0.359 | 0.301 | 0.326 | 0.485 | 0.198 | 0.595 | 0.522 | 0.237 | 0.272 | 0.296 | 0.209 | 0.262 | 0.112
4 | NCI-H1437 | 0.487 | 0.518 | 0.452 | 0.463 | 0.5 | 0.33 | 0.28 | 0.301 | 0.307 | 0.298 | 1.09 | 1.07 | 1.04 | 1.11 | 1.06 | 1.19 | 1.06 | 1.05 | 1.1 | 0.966
5 | NCI-H2405 | 0.752 | 0.661 | 0.635 | 0.633 | 0.606 | 1.16 | 1.03 | 1.05 | 0.977 | 0.737 | 0.946 | 0.74 | 0.711 | 0.695 | 0.604 | 0.794 | 0.603 | 0.695 | 0.715 | 0.611
6 | NCI-H1666 | 0.914 | 0.848 | 0.85 | 0.813 | 0.787 | 0.876 | 0.857 | 0.845 | 0.846 | 0.819 | 1.04 | 0.926 | 0.858 | 0.855 | 0.907 | 0.861 | 0.8 | 0.82 | 0.936 | 0.813
7 | NCI-H1993 | 0.564 | 0.51 | 0.561 | 0.404 | 0.497 | 0.684 | 0.568 | 0.513 | 0.67 | 0.608 | 0.829 | 0.931 | 0.363 | 0.877 | 0.832 | 0.836 | 0.754 | 0.702 | 0.9 | 0.795
8 | LU99A | 0.602 | 0.634 | 0.537 | 0.55 | 0.418 | 0.174 | 0.157 | 0.188 | 0.18 | 0.16 | 0.246 | 0.328 | 0.208 | 0.253 | 0.199 | 0.37 | 0.254 | 0.338 | 0.346 | 0.392
